For orientation: IC50 means the midpoint of a concentration-inhibition curve.

Experiment [1] concerns the target T1, AVP-V2 sites (Rattus norvegicus, UniProt Q00788).
T1 construct: male rat liver (AVP-V1 sites) or kidney medulla (AVP-V2 sites); from tissue; host or cells: male rat kidney medulla, crude membranes
Briefly: [^3 H]AVP binding to crude membrane preparation of male rat kidney medulla (AVP-V2 sites). As to the method: (§1) Nonspecific binding (5-10% of the total binding) was determined using 10 μM unlabeled AVP, and the binding reaction was terminated by filtration as described above for the [^3 H]OT binding assay.

The target of experiment [2] is T2, uterine OT receptors (Rattus norvegicus, UniProt P70536).
T2 construct: from tissue; host or cells: uterus of DES-treated rats, crude membranes
T2 sequence (P70536 1-388): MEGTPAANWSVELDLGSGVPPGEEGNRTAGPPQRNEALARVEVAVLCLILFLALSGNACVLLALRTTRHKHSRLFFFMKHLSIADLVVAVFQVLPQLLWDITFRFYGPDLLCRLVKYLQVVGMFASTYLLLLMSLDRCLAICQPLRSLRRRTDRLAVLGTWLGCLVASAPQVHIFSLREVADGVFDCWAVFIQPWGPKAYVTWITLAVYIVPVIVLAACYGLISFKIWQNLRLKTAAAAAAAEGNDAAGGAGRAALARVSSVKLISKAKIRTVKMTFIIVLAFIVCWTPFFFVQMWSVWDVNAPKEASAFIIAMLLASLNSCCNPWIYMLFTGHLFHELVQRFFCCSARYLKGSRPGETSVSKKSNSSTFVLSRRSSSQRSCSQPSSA
As to the kind of experiment: [^3 H]OT binding to uterine OT receptors, crude membrane preparation of uteri from DES-treated rats. To be noted: for inhibition at 1 µM: 1 h, @ 1,000 (nM), read-out: [^3 H]OT: percent inhibition of radioligand at the given concentration; for IC50: rat uterus membranes, 1 nM [^3 H]OT, read-out: Receptor Binding Results IC50 (nM) [^3 H]OT. As to the method: Competition studies were conducted at equilibrium (60 minutes; 22° C.) using 1 nM [^3 H]OT in the following assay buffer: 50 mM Tris-HCl, 5 mM MgCl2, and 0.1% BSA, pH 7.4.

Experiment [3] deals with T3, AVP-V1 sites (Rattus norvegicus, UniProt P30560).
T3 construct: crude membrane preparation of male rat liver (AVP-V1 sites); from tissue; host or cells: male rat liver, crude membranes
T3 sequence (P30560 whole entry): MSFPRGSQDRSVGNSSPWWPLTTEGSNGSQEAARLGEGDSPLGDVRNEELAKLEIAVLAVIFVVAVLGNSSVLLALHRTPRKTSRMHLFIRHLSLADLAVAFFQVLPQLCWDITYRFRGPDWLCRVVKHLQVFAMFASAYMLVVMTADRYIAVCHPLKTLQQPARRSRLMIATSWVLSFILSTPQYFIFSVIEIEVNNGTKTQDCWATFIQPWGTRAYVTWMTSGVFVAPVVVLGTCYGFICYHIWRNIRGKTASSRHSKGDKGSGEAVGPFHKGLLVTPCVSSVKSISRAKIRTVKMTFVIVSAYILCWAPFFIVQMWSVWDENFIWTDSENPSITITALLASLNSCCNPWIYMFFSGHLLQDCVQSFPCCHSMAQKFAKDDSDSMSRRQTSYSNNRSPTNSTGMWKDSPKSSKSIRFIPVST
Briefly: [^3 H]AVP binding to crude membrane preparation of male rat liver (AVP-V1 sites). On the procedure: as §1

The mark [4] stands for this setting: rat kidney medulla membranes, 2 nM [^3 H]AVP, read-out: Receptor Binding Results IC50 (nM) [^3 H]-AVP-V2.
Where [5] appears, read: Receptor Binding Results IC50 (nM) [^3 H]-AVP-V1.
The mark [6] stands for this setting: read-out: Receptor Binding Results IC50 (nM) [^3 H]-AVP-V2.
Where [7] appears, read: read-out: Receptor Binding Results IC50 (nM) [^3 H]-AVP-V1.

Where two headings read alike, the source gives them in different places. Numbered stars: 1 amine (or outer) side, 2 acyl side, 3 side chain; on linkers, the order of the positions; unused ones are H or OH. Square brackets hold non-standard residues; d marks the D form. Peptide text beside a SMILES is read from it. * marks the point of attachment. dPip(4-aza,4-Cbz) = O=C(O)[C@H]1CN(C(=O)OCc2ccccc2)CCN1; X2 = O=C(OCc1ccccc1)N1CCN([*:1])[C@H](C(=O)[*:2])C1; d1Nal = N[C@H](Cc1cccc2ccccc12)C(=O)O; d2Nal = N[C@H](Cc1ccc2ccccc2c1)C(=O)O; dNMeY = CN[C@H](Cc1ccc(O)cc1)C(=O)O; X12 = O=C([C@@H]1CCCNN1[*:1])[*:2]; Pip(4-aza) = O=C(O)[C@@H]1CNCCN1; X6 = O=C([C@H]1CCCNN1[*:1])[*:2]; dNMeF = CN[C@H](Cc1ccccc1)C(=O)O; Cha = N[C@@H](CC1CCCCC1)C(=O)O; Phg = N[C@H](C(=O)O)c1ccccc1; Pip = O=C(O)[C@@H]1CCCCN1; dPip = O=C(O)[C@H]1CCCCN1; ClZ = O=C(OCc1ccccc1Cl)*; dNMeA = CN[C@H](C)C(=O)O; Bn = c1ccc(C*)cc1; Acm = CC(=O)NC* Where only a bound is given, the exact number is not on record here.

T1 sequence (Q00788 whole entry): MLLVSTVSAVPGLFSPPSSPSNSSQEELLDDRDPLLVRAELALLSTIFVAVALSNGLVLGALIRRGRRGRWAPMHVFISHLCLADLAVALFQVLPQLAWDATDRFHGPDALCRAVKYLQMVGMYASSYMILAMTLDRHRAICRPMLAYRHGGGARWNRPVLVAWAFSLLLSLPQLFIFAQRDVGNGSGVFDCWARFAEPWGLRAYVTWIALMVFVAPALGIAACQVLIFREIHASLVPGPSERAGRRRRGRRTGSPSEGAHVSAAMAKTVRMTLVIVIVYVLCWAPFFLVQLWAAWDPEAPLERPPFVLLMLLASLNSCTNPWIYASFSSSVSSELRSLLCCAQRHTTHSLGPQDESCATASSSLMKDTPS

Consider `CC[C@H](C)[C@@H]1NC(=O)[C@@H](Cc2ccccc2)NC(=O)[C@@H]2CCCN2C(=O)[C@@H](CCCCNC(=O)OCc2ccccc2Cl)NC(=O)[C@@H]2CCCCN2C(=O)[C@H]2CCCCN2C1=O` [Example 26, Cyclo[D-phenylalanyl-L-isoleucyl-D-pipecolyl-L-pipecolyl-D-(2-chlorocarbobenzyloxy)-lysyl-L-prolyl]] (cyclo(I[dPip][Pip][dK](ClZ)P[dF])), for which the IC50 in experiment [1] (setting [4]) and in experiment [3] (setting [5]) was 10000 nM in each case. The inhibition at 1 µM in experiment [2] was determined as 86%.

Regarding `CC[C@H](C)[C@@H]1NC(=O)[C@@H](Cc2ccccc2)NC(=O)[C@@H]2CCCN2C(=O)[C@@H](Cc2ccccc2)N(C)C(=O)[C@@H](C)N(C)C(=O)[C@H]2CCCCN2C1=O` [Example 6, Cyclo[D-phenyalanyl-L-isoleucyl-D-pipecolyl-L-(N^α -methyl)alanyl-D-(N^α Methyl)phenylanyl-L-prolyl]] (cyclo([dF]I[dPip][dNMeA][dNMeF]P)), the IC50 in experiment [1] (setting [4]) is greater than 10000 nM; in experiment [2], 1800 nM; in experiment [3] (setting [5]) it was greater than 10000 nM.

Take `CC[C@H](C)[C@@H]1NC(=O)[C@@H](Cc2ccccc2)NC(=O)[C@@H]2CCCN2C(=O)[C@@H](Cc2c[nH]cn2)NC(=O)[C@H]2CN(C(=O)OCc3ccccc3)CCN2C(=O)[C@H]2CCCCN2C1=O` [Example 82, c-[D-Phenylalanyl-L-isoleucinyl-D-pipecolyl-D-piperazin-2-yl(4Cbz)-D-histidinyl-L-prolyl]] (cyclo(I[dPip][dPip(4-aza,4-Cbz)][dH]P[dF])): the values for the IC50 in experiment [1] (setting [4]), in experiment [2] and in experiment [3] (setting [5]) were 10000 nM, 73 nM and 10000 nM, respectively.

For `CC[C@H](C)[C@@H]1NC(=O)C(Cc2c[nH]c3ccc(F)cc23)NC(=O)[C@@H]2CCCN2C(=O)[C@@H](Cc2c[nH]cn2)NC(=O)[C@@H]2CCCCN2C(=O)[C@H]2CCCCN2C1=O` (single isomer, unassigned) [157 lower Rf], the concentration for half-maximal inhibition (IC50) in experiment [1] (setting [6]) came out at 26000 nM; in experiment [3] (setting [7]) it was 13000 nM. Besides, the inhibition at 1 µM in experiment [2] amounted to 6%.

With `CC[C@H](C)[C@@H]1NC(=O)C(Cc2cn(C)c3ccccc23)NC(=O)[C@@H]2CCCN2C(=O)[C@@H](Cc2c[nH]cn2)NC(=O)[C@@H]2CCCCN2C(=O)[C@H]2CCCCN2C1=O` (single isomer, unassigned) [153 lower Rf], the inhibition at 10 µM in experiment [1] (0.5 h, @ 10,000 (nM), read-out: [^3 H]-AVP-V2: percent inhibition of radioligand at the given concentration) came out at 73%.

Consider `CC[C@H](C)[C@@H]1NC(=O)[C@@H](Cc2ccc3ccccc3c2)NC(=O)[C@@H]2CCCN2C(=O)[C@@H](Cc2ccccc2)N(C)C(=O)[C@@H]2CNCCN2C(=O)[C@H]2CCCCN2C1=O` [Example 171, c-[D-2-Naphthylalanyl-L-isoleucinyl-D-pipecolyl-L-piperazin-2-yl-D-(N^α -methyl)phenylalanyl-L-prolyl]] (cyclo(I[dPip][Pip(4-aza)][dNMeF]P[d2Nal])), for which the concentration for half-maximal inhibition (IC50) in experiment [1] (setting [6]) came to 335 nM; in experiment [2], 3.9 nM; in experiment [3] (setting [7]), 15000 nM.

`CC[C@H](C)[C@@H]1NC(=O)[C@@H](Cc2c[nH]c3ccccc23)NC(=O)[C@@H]2CCCN2C(=O)[C@@H](Cc2ccc(O)cc2)N(C)C(=O)[C@@H]2CCCCN2C(=O)[C@H]2CCCCN2C1=O` [Example 137, c-[D-Tryptophanyl-L-isoleucyl-D-pipecolyl-L-pipecolyl-D-(N-methyl)tyrosyl-L-prolyl]] (cyclo(I[dPip][Pip][dNMeY]P[dW])): the values for the IC50 in experiment [1] (setting [6]), in experiment [2] and in experiment [3] (setting [7]) were 245 nM, 7.9 nM and 9300 nM, respectively.

For the molecule `CC[C@H](C)[C@@H]1NC(=O)[C@@H](Cc2cccc3ccccc23)NC(=O)[C@@H]2CCCN2C(=O)[C@@H](Cc2cnc[nH]2)NC(=O)[C@@H]2CCCCN2C(=O)[C@H]2CCCCN2C1=O` [Example 11, Cyclo[D-a-naphthalalanyl-L-isoleucyl-D-pipecolyl-L-pipecolyl-D-histidyl-L-prolyl]] (cyclo(I[dPip][Pip][dH]P[d1Nal])), the IC50 in experiment [1] (Receptor Binding Results IC50 (nM) [^3 H]-AVP-V2) and in experiment [3] (setting [5]) was greater than 1000 nM in each case.

Consider “C-[D,L-3-(3-(7-Methyl)indolyl)alanyl-L-isoleucyl-D-pipecolyl-L-pipecolyl-D- histidyl-L-prolyl] [Example 155]”, for which, in experiment [1] (@ 1,000 (nM)), the “[^3 H]-AVP-V2: percent inhibition of radioligand at the given concentration” value is on record as 30%. The “[^3 H]OT: percent inhibition of radioligand at the given concentration” value in experiment [2] (@ 100 (nM)) is on record as 48%.

For “c-[D,L-3-(3-(1-Methyl)indolyl)alanyl-L-isoleucyl-D-pipecolyl-L-pipecolyl-D- histidyl-L-prolyl] [Example 153]”, the “[^3 H]-AVP-V2: percent inhibition of radioligand at the given concentration” value in experiment [1] (@ 1,000 (nM)) is 35%. The “[^3 H]OT: percent inhibition of radioligand at the given concentration” value in experiment [2] (@ 10 (nM)) is on record as 48%.

With `CC[C@H](C)[C@@H]1NC(=O)[C@@H](Cc2ccccc2)NC(=O)[C@@H]2CCCN2C(=O)[C@@H](Cc2ccccc2)NC(=O)[C@@H]2CCCNN2C(=O)[C@H]2CCCNN2C1=O` [Example 96, c-[L-prolyl-D-phenylalanyl-L-isoleucyl-D-piperazyl-L-piperazyl-D-phenylalanyl]] (cyclo(I[X6][X12][dF]P[dF])), the IC50 in experiment [2] came out at 245 nM; in experiment [3] (setting [7]), 2900 nM.

As for `CC[C@H](C)[C@@H]1NC(=O)[C@@H](Cc2ccc3ccccc3c2)NC(=O)[C@@H]2CCCN2C(=O)[C@@H](Cc2ccccc2)N(C)C(=O)[C@H](CCCCN)NC(=O)[C@H]2CCCCN2C1=O` [Example 140, C-[D-2-Napthylalanyl-L-isoleucyl-D-pipecolyl-L-lysyl-D-(N-methyl)phenylalanyl-L-prolyl]] (cyclo([d2Nal]I[dPip]K[dNMeF]P)), in experiment [1] (0.5 h, @ 1,000 (nM), read-out: [^3 H]-AVP-V2: percent inhibition of radioligand at the given concentration), the inhibition at 1 µM is 84%.

With `CC[C@H](C)[C@@H]1NC(=O)[C@@H](Cc2ccccc2)NC(=O)[C@@H]2CCCN2C(=O)[C@@H](CSCc2ccccc2)NC(=O)[C@@H]2CCCN2C(=O)[C@H]2CCCN2C1=O` [Example 59, c-[D-Phenylalanyl-L-isoleucyl-D-prolyl-L-prolyl-D-crsteinyl(Bzl)-L-prolyl]] (cyclo([dC](Bn)P[dF]I[dP]P)), in experiment [2], the IC50 was greater than 1000 nM.

Consider `CN1C(=O)[C@@H]2CCCCN2C(=O)[C@H]2CCCCN2C(=O)[C@H](Cc2ccccc2)NC(=O)[C@@H](Cc2c[nH]c3ccccc23)NC(=O)[C@@H]2CCCN2C(=O)[C@H]1Cc1ccccc1` [Example 134, c-[D-Tryptophanyl-L-phenylalanyl-D-pipecolyl-L-pipecolyl-D-(N-methyl)phenylalanyl-prolyl]] (cyclo(F[dPip][Pip][dNMeF]P[dW])), for which the IC50 in experiment [1] (setting [6]) came to 8000 nM; in experiment [2] it was 110 nM.

For `CC[C@H](C)[C@@H]1NC(=O)[C@@H](Cc2ccccc2)NC(=O)[C@@H]2CCCN2C(=O)[C@@H](CSCNC(C)=O)NC(=O)[C@@H]2CCCN2C(=O)[C@H]2CCCN2C1=O` [Example 58, c-[D-Phenylalanyl-L-isoleucyl-D-prolyl-L-prolyl-D-cysteinyl(Acm)-L-prolyl]] (cyclo([dC](Acm)P[dF]I[dP]P)), the IC50 in experiment [2] was greater than 10000 nM.

As for `CC[C@H](C)[C@@H]1NC(=O)[C@@H](Cc2ccccc2)NC(=O)[C@@H]2CCCN2C(=O)[C@@H](Cc2ccccc2)NC(=O)[C@@H]2CN(C(=O)OCc3ccccc3)CCN2C(=O)[C@H]2CCCN2C1=O` [Example 163, c-[D-Phenylalanyl-L-isoleucinyl-D-prolyl-L-piperazin-2-yl(4-Cbz)-D-phenylalanyl-L-prolyl]] (cyclo([dF]I[dP][X2][dF]P)), in experiment [2], the inhibition at 1 µM worked out at 49%.

On to `O=C1N[C@@H](CC2CCCCC2)C(=O)N2CCC[C@@H]2C(=O)N2CCC[C@H]2C(=O)N[C@H](Cc2ccccc2)C(=O)N2CCC[C@H]2C(=O)N[C@@H]1Cc1ccccc1` [Example 56, c-[D-Phenylalanyl-L-cyclohexylalanyl-D-prolyl-L-prolyl-D-phenylalanyl-L-prolyl]] (cyclo([dF]P[dF][Cha][dP]P)), for which the IC50 in experiment [2] is greater than 10000 nM.

In the case of `O=C1N[C@@H](c2ccccc2)C(=O)N2CCC[C@@H]2C(=O)N2CCC[C@H]2C(=O)N[C@H](Cc2ccccc2)C(=O)N2CCC[C@H]2C(=O)N[C@@H]1Cc1ccccc1` [Example 63, c-[D-Phenylalanyl-L-phenylglycyl-D-prolyl-L-prolyl-D-phenylalanyl-L-prolyl]] (cyclo([dF]P[dF][Phg][dP]P)), the IC50 in experiment [2] was greater than 10000 nM.

With `CC[C@H](C)[C@@H]1NC(=O)[C@@H](Cc2ccccc2)NC(=O)[C@@H]2CCCN2C(=O)[C@@H]([C@H](C)OCc2ccccc2)NC(=O)[C@@H]2CCCN2C(=O)[C@H]2CCCN2C1=O` [Example 61, c-[D-Phenylalanyl-L-isoleucyl-D-prolyl-L-prolyl-D-threoninyl(Bzl)-L-prolyl]] (cyclo([dT](Bn)P[dF]I[dP]P)), the IC50 in experiment [2] was greater than 10000 nM.

Source of the values: US5225528A, “Cyclic hexapeptide oxytocin antagonists” (priority 1990, dated 1993).
